Reference: publication PMC8348019

Assay: head-to-tail lactamisation of linear tetramer (amino acid/peptoid hybrids) with HATU (1.5 equiv), DIPEA (8 equiv); dropwise addition of linear precursor to HATU solution
Details: the molecule shown is the open-chain precursor; 12-membered ring; DMF; 5.0 mM; 21.0 °C; 30.0 h; 10 steps
`C=CCN(CC(=O)N[C@@H](Cc1ccccc1)C(=O)O)C(=O)[C@H]1CCCN1C(=O)CNC1CCCCC1` [H-(N-cyclohexyl)Gly-D-Pro-(N-allyl)Gly-Phe-OH] showed a ring closure, overall yield of 50%.
For `CCCC[C@H](NC(=O)[C@H]1CCCN1C(=O)[C@@H](N)[C@@H](C)CC)C(=O)N[C@@H](Cc1c[nH]c2ccccc12)C(=O)O` [H-Ile-D-Pro-Nle-Trp-OH], the ring closure, overall yield was 22%.
For `CC[C@H](C)[C@H](N)C(=O)N1CCC[C@@H]1C(=O)N[C@@H](COC(C)(C)C)C(=O)N[C@@H](Cc1ccccc1)C(=O)O` [H-Ile-D-Pro-Ser(tBu)-Phe-OH], the ring closure, overall yield was 46%.
`CCCC[C@H](NC(=O)[C@H]1CCCN1C(=O)[C@@H](N)CC(C)C)C(=O)N[C@@H](Cc1ccccc1)C(=O)O` [H-Leu-D-Pro-Nle-Phe-OH] gave a ring closure, overall yield of 56%.
Compound `CCCC[C@H](NC(=O)[C@H]1CCCN1C(=O)[C@@H](N)CC(C)C)C(=O)N[C@@H](Cc1c[nH]c2ccccc12)C(=O)O` [H-Leu-D-Pro-Nle-Trp-OH] has a ring closure, overall yield of 36%.
`CCCC[C@H](NC(=O)[C@H]1CCCN1C(=O)[C@@H](N)Cc1ccccc1)C(=O)N[C@@H](Cc1c[nH]c2ccccc12)C(=O)O` [H-Phe-D-Pro-Nle-Trp-OH] gave a ring closure, overall yield of 38%.
